≈ marks a conversion by molar mass, not a printed value.
Columns and labels:
[1] = test system: Klebsiella pneumoniae ATCC 10 031; assay: series dilution test in the microtiter system (MIC), Klebsiella pneumoniae ATCC 10031; assay type: cell-based; conditions: 18 to 20 hours at 37° C., liquid medium, read-out: minimum inhibitory concentrations (MIC), Klebs.pneum. ATCC 10031
Method: (§1) The method of the series dilution test in the microtiter system was used. The substances were tested for bacteriostasis in a liquid medium. The bacteriostatic activity was tested at the following concentrations:
(§2) A nutrient medium having the following composition was used: 10 gm of peptone, 8 gm of meat extract oxoid, 3 gm of sodium chloride, and 2 gm of sec. sodium phosphate were made up to […] with distilled water (pH 7.2 to 7.4). The age of the primary cultures was about 20 hours.
(§3) The bacterial suspension was adjusted using the photometer (according to "Eppendorf", test tube diameter 14 mm, filter 546 nm) by reference to the turbidity of a barium sulfate comparison suspension which was produced by a barium sulfate suspension formed by the addition of 3.0 ml of 1% barium chloride solution to 97 ml of 1% sulfuric acid. After adjustment, Streptococcus aronson was diluted in the ratio 1:15 and the other test pathogens were diluted in the ratio 1:1500 with a common salt solution.
(§4) 16 mg of the test substance were weighed in 10 ml measuring flasks and solvent was added up to the mark. Further dilutions in the series were made with distilled water or the solvent in question.
(§5) The depressions in the microtiter plates were filled with 0.2 ml of nutrient medium, 0.01 ml of the corresponding diluted substance and a drop of bacterial suspension (0.01 ml) and incubated for 18 to 20 hours at 37° C. A solvent check was carried out continuously at the same time.
(§6) The reading was taken macroscopically, and the respective limiting concentration (=the lowest concentration still having bacteriostatic activity) was determined.
(§7) The following were used as test organisms:
(§8) Staphylococcus aureus SG 511, Escherichia coli ATCC 11 775, Pseudomonas aeruginosa Hamburgensis and Pseudomonas aeruginosa BC 19, Serratia Marcescens ATCC 13 880, Klebsiella pneumoniae ATCC 10 031 and BC 6, Proteus mirabilis Hamburgensis, Proteus rettgeri BC 7, Enterobacter cloacae ATCC 13 047.
(§9) Table 1 below lists the minimum inhibitory concentrations (MIC) in μgm/ml determined for typical representatives of the compounds of the present invention. These are the sodium salts of compounds of the formula I where A=p-hydroxyphenyl and R has the indicated meanings.

Proteus rettgeri BC 7 = assay: series dilution test in the microtiter system (MIC), Proteus rettgeri BC 7; assay type: cell-based; conditions: Providencia rettgeri, BC7; 18 to 20 hours at 37° C., liquid medium; read-out: minimum inhibitory concentrations (MIC), Prot. geri BC
Method: as §1, §2, §3, §4, §5, §6, §7, §8, §9

[2] = test system: Serratia Marcescens ATCC 13 880; assay: series dilution test in the microtiter system (MIC), Serratia marcescens ATCC 13880; assay type: cell-based; conditions: 18 to 20 hours at 37° C., liquid medium, read-out: minimum inhibitory concentrations (MIC), Serrat. marcesc. ATCC 13880
Method: as §1, §2, §3, §4, §5, §6, §7, §8, §9

[3] = test system: Enterobacter cloacae ATCC 13 047; assay: series dilution test in the microtiter system (MIC), Enterobacter cloacae ATCC 13047; assay type: cell-based; conditions: 18 to 20 hours at 37° C., liquid medium, read-out: minimum inhibitory concentrations (MIC), Eb.cloacae ATCC 13047
Method: as §1, §2, §3, §4, §5, §6, §7, §8, §9

[4] = test system: Pseudomonas aeruginosa BC 19; assay: in vivo experimental Pseudomonas infection in mice; parameters: species or system mice (female, NMRI strain); conditions: BC19, sc, 168 h, subcutaneous, three treatments 1, 3 and 5 hours post-infectionem, 50% survival, 7 days observation, read-out: ED50, Pseud. Infection
Method: (§10) A number of the compounds of the present invention were tested in vivo against experimental infections in mice. E. coli ATCC 11775 and Pseudomonas aeruginosa BC 19 were used as the pathogenic bacteria. An intraperitoneal infection was produced with 0.2 ml of a 5% mucin suspension of the bacteria. This corresponds to about 1.4×10^6 E. coli bacteria and 1.3×10^6 Pseudomonas bacteria per mouse. Female mice of the NMRI strain were divided into groups of 10 animals; two groups were untreated, the other groups were treated subcutaneously with various doses of the penicillins of the present invention, to determine the ED50 (dose at which 50% of the animals survived). For the E. coli infection, one treatment was given*. For the Pseudomonas infection, three treatments were given (1, 3 and 5 hours post-infectionem). In both cases, the observation period was 7 days.

[5] = test system: Klebsiella pneumoniae BC 6; assay: series dilution test in the microtiter system (MIC), Klebsiella pneumoniae BC 6; assay type: cell-based; conditions: BC6, 18 to 20 hours at 37° C., liquid medium, read-out: minimum inhibitory concentrations (MIC), Klebs. pneum. BC 6
Method: as §1, §2, §3, §4, §5, §6, §7, §8, §9

[6] = test system: Pseudomonas aeruginosa Hamburgensis; assay: series dilution test in the microtiter system (MIC), Ps. aeruginosa Hamburgensis; assay type: cell-based; conditions: 18 to 20 hours at 37° C., liquid medium, read-out: minimum inhibitory concentrations (MIC), Pseud. aerug. Hbg.
Method: as §1, §2, §3, §4, §5, §6, §7, §8, §9

[7] = test system: Pseudomonas aeruginosa BC 19; assay: series dilution test in the microtiter system (MIC), Ps. aeruginosa BC 19; assay type: cell-based; conditions: BC19, 18 to 20 hours at 37° C., liquid medium, read-out: minimum inhibitory concentrations (MIC), Pseud. aerug. BC 19
Method: as §1, §2, §3, §4, §5, §6, §7, §8, §9

[8] = test system: Escherichia coli ATCC 11 775; assay: series dilution test in the microtiter system (MIC), E. coli ATCC 11775; assay type: cell-based; conditions: 18 to 20 hours at 37° C., liquid medium, read-out: minimum inhibitory concentrations (MIC), E.Coli ATCC 11775
Method: as §1, §2, §3, §4, §5, §6, §7, §8, §9

[9] = test system: Staphylococcus aureus SG 511; assay: series dilution test in the microtiter system (MIC), S. aureus SG 511; assay type: cell-based; conditions: SG511, 18 to 20 hours at 37° C., liquid medium, read-out: minimum inhibitory concentrations (MIC), S.aureus SG 511
Method: as §1, §2, §3, §4, §5, §6, §7, §8, §9

E. coli ATCC 11775 = assay: in vivo experimental E. coli infection in mice; parameters: species or system mice (female, NMRI strain); conditions: Escherichia coli, ATCC11775, sc, 168 h; subcutaneous, one treatment 1 hour post infectionem; 50% survival, 7 days observation
Method: as §10, with “post-infectionem). *1 hour post infectionem” for “post-infectionem).”

[10] = test system: Proteus mirabilis Hamburgensis; assay: series dilution test in the microtiter system (MIC), Proteus mirabilis Hamburgensis; assay type: cell-based; conditions: 18 to 20 hours at 37° C., liquid medium, read-out: minimum inhibitory concentrations (MIC), Prot. mirabilis Hbg
Method: as §1, §2, §3, §4, §5, §6, §7, §8, §9

| Structure (SMILES) | MIC [1] | MIC (Proteus rettgeri BC 7) | MIC [2] | MIC [3] | ED50 [4] | MIC [5] | MIC [6] | MIC [7] | MIC [8] | MIC [9] | ED50 (E. coli ATCC 11775) | MIC [10] |
| --- | --- | --- | --- | --- | --- | --- | --- | --- | --- | --- | --- | --- |
| CC1(C)S[C@@H]2[C@H](NC(=O)C(NC(=O)Nc3cnc(Nc4ccc(S(=O)(=O)NC5=NCCCN5)cc4)nc3O)c3ccc(O)cc3)C(=O)N2[C@H]1C(=O)O (some centres unmarked) [A] | 2 µg/mL (≈ 2.65 µM) | 0.5 µg/mL (≈ 0.662 µM) | 0.5 µg/mL (≈ 0.662 µM) | 0.5 µg/mL (≈ 0.662 µM) | 2.1 mg/kg | 2 µg/mL (≈ 2.65 µM) | 1 µg/mL (≈ 1.32 µM) | 1 µg/mL (≈ 1.32 µM) | 0.25 µg/mL (≈ 0.331 µM) | 0.25 µg/mL (≈ 0.331 µM) | 0.6 mg/kg | 0.06 µg/mL (≈ 0.0795 µM) |
| CC1(C)S[C@@H]2[C@H](NC(=O)C(NC(=O)Nc3cnc(Nc4ccc(S(=O)(=O)NC5=NCCN5)cc4)nc3O)c3ccc(O)cc3)C(=O)N2[C@H]1C(=O)O (some centres unmarked) [B] | 2 µg/mL (≈ 2.7 µM) | 0.5 µg/mL (≈ 0.675 µM) | 0.25 µg/mL (≈ 0.337 µM) | 0.1 µg/mL (≈ 0.135 µM) | 1.9 mg/kg | 4 µg/mL (≈ 5.4 µM) | 2 µg/mL (≈ 2.7 µM) | 1 µg/mL (≈ 1.35 µM) | 0.25 µg/mL (≈ 0.337 µM) | 0.5 µg/mL (≈ 0.675 µM) | 0.7 mg/kg | 0.06 µg/mL (≈ 0.081 µM) |
| CC1(C)S[C@@H]2[C@H](NC(=O)C(NC(=O)Nc3cnc(Nc4ccc(S(=O)(=O)NC5=NCCS5)cc4)nc3O)c3ccc(O)cc3)C(=O)N2[C@H]1C(=O)O (some centres unmarked) [C] | 1 µg/mL (≈ 1.32 µM) | 0.25 µg/mL (≈ 0.33 µM) | 0.25 µg/mL (≈ 0.33 µM) | 0.5 µg/mL (≈ 0.66 µM) | 17 mg/kg | 1 µg/mL (≈ 1.32 µM) | 1 µg/mL (≈ 1.32 µM) | 2 µg/mL (≈ 2.64 µM) | 0.12 µg/mL (≈ 0.158 µM) | 0.25 µg/mL (≈ 0.33 µM) | ~3 mg/kg | 0.06 µg/mL (≈ 0.0792 µM) |
| CC1(C)S[C@@H]2[C@H](NC(=O)C(NC(=O)Nc3cnc(Nc4ccc(S(=O)(=O)NC5=NCCO5)cc4)nc3O)c3ccc(O)cc3)C(=O)N2[C@H]1C(=O)O (some centres unmarked) [D] | 2 µg/mL (≈ 2.7 µM) | 0.25 µg/mL (≈ 0.337 µM) | 0.25 µg/mL (≈ 0.337 µM) | 1 µg/mL (≈ 1.35 µM) | – | 4 µg/mL (≈ 5.39 µM) | 1 µg/mL (≈ 1.35 µM) | 1 µg/mL (≈ 1.35 µM) | 0.25 µg/mL (≈ 0.337 µM) | 0.5 µg/mL (≈ 0.674 µM) | ~2 mg/kg | 0.06 µg/mL (≈ 0.0809 µM) |
| CC1(C)S[C@@H]2[C@H](NC(=O)C(NC(=O)Nc3cnc(Nc4ccc(S(=O)(=O)NCCO)cc4)nc3O)c3ccc(O)cc3)C(=O)N2[C@H]1C(=O)O (some centres unmarked) [F] | 2 µg/mL (≈ 2.79 µM) | 0.5 µg/mL (≈ 0.698 µM) | 0.13 µg/mL (≈ 0.181 µM) | 2 µg/mL (≈ 2.79 µM) | 10 to 20 mg/kg | 4 µg/mL (≈ 5.58 µM) | 2 µg/mL (≈ 2.79 µM) | 1 µg/mL (≈ 1.4 µM) | 0.25 µg/mL (≈ 0.349 µM) | 0.5 µg/mL (≈ 0.698 µM) | ~5 mg/kg | 0.06 µg/mL (≈ 0.0837 µM) |
| CC1(C)S[C@@H]2[C@H](NC(=O)C(NC(=O)Nc3cnc(Nc4ccc(S(=O)(=O)NCC(N)=O)cc4)nc3O)c3ccc(O)cc3)C(=O)N2[C@H]1C(=O)O (some centres unmarked) [G] | 2 µg/mL (≈ 2.74 µM) | 0.5 µg/mL (≈ 0.685 µM) | 0.25 µg/mL (≈ 0.343 µM) | 1 µg/mL (≈ 1.37 µM) | – | 2 µg/mL (≈ 2.74 µM) | 1 µg/mL (≈ 1.37 µM) | 1 µg/mL (≈ 1.37 µM) | 0.12 µg/mL (≈ 0.164 µM) | 0.5 µg/mL (≈ 0.685 µM) | ~5 mg/kg | 0.06 µg/mL (≈ 0.0822 µM) |
| CC1(C)S[C@@H]2[C@H](NC(=O)C(NC(=O)Nc3cnc(Nc4ccc(S(=O)(=O)N5CCN(C=O)CC5)cc4)nc3O)c3ccc(O)cc3)C(=O)N2[C@H]1C(=O)O (some centres unmarked) [H] | 2 µg/mL (≈ 2.6 µM) | 0.5 µg/mL (≈ 0.65 µM) | 0.25 µg/mL (≈ 0.325 µM) | 1 µg/mL (≈ 1.3 µM) | – | 2 µg/mL (≈ 2.6 µM) | 2 µg/mL (≈ 2.6 µM) | 1 µg/mL (≈ 1.3 µM) | 0.25 µg/mL (≈ 0.325 µM) | 0.5 µg/mL (≈ 0.65 µM) | – | 0.06 µg/mL (≈ 0.0779 µM) |
| CC1(C)S[C@@H]2[C@H](NC(=O)[C@H](NC(=O)N3CCNC3=O)c3ccccc3)C(=O)N2[C@H]1C(=O)O [J, azlocillin, reference compound] | 32 µg/mL (≈ 69.3 µM) | 8 µg/mL (≈ 17.3 µM) | 4 µg/mL (≈ 8.67 µM) | 32 µg/mL (≈ 69.3 µM) | > 100 mg/kg | 32 µg/mL (≈ 69.3 µM) | 8 µg/mL (≈ 17.3 µM) | 8 µg/mL (≈ 17.3 µM) | 8 µg/mL (≈ 17.3 µM) | 0.5 µg/mL (≈ 1.08 µM) | > 100 mg/kg | 2 µg/mL (≈ 4.33 µM) |

— US4379784A, “Pyrimidinyl ureido penicillins” (Dr. Karl Thomae Gesellschaft mit beschrankter Haftung, priority 1980, dated 1983)
